# Measurements from publication PMC10706242, “Inhibitors of 3-Hydroxy-3-methylglutaryl Coenzyme A Reductase Decrease the Growth, Ergosterol Synthesis and Generation of petite Mutants in Candida glabrata and Candida albicans” (International Journal of Molecular Sciences, 2023).
# Tests used:
# [1] = target: T1, rec-CgHMGR (CgHMGR) (Nakaseomyces glabratus, UniProt Q6FKH6); experiment: NADPH oxidation at […] nm; type: biochemical; conditions: read-out: Inhibition (% of Relative Activity) *
# T1 construct: gene HMG1; transmembrane region removed), pPICZB, His-tagged, expressed in Pichia pastoris X-33, Ni-NTA purified, approx. 48 kDa by SDS-PAGE
# T1 sequence (Q6FKH6 619-1056 limits assumed): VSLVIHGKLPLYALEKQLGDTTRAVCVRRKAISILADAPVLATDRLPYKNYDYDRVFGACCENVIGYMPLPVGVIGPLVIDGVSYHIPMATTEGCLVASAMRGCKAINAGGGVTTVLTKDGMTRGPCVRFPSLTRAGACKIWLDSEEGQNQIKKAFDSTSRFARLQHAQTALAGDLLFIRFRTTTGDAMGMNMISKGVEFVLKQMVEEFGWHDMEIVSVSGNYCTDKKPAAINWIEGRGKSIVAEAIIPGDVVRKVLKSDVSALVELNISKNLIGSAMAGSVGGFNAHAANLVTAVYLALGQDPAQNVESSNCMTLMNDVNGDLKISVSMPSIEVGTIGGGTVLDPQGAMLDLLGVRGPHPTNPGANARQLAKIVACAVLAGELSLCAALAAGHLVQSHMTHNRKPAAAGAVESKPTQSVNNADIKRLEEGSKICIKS
# [2] = target: T1, rec-CgHMGR (CgHMGR); experiment: NADPH oxidation at […] nm; type: biochemical; conditions: HMG-CoA, 50 mM Tris-HCl pH 8.0, 37 °C
SMILES,inhibition at 100 µM [1],NADPH oxidation at 340 nm [2]
CCCc1cc(OC)c(OCC(=O)OC)cc1[N+](=O)[O-] [1a],73 ± 1.52%,
CCCc1cc(OC)c(OCC(=O)OC)cc1O [1b],89 ± 1.24%,
CCc1ccc(OCC(=O)OC)c([N+](=O)[O-])c1 [6g],86 ± 3.21%,
CCCc1cc(OC)c(OC)cc1O [7a],66 ± 2.08%,
NC(=O)C1=CN([C@@H]2O[C@H](COP(=O)(O)OP(=O)(O)OC[C@H]3O[C@@H](n4cnc5c(N)ncnc54)[C@H](OP(=O)(O)O)[C@@H]3O)[C@@H](O)[C@H]2O)C=CC1 [NADPH],,converted into its oxidized form by the catalytic subunit of HMGR in the presence of HMG-CoA
